Entries after “also recorded” stand apart in the source; their conditions may differ. Where two headings read alike, the source gives them in different places. Where no end group is shown, it is not given here.
Legend:
dog nasal mucosa = assay: Parasympathetic nerve-evoked nasal vasodilatation in anaesthetised dogs; assay type: in vivo; settings: for parasympathetic vasodilatation after administration, in words: i.v.
[1] = system: internal maxillary artery; assay: Local intra arterial injection, vascular resistance in the internal maxillary artery (Rma); assay type: in vivo; settings: dog; for effect on Rma, in words / rank order potency on a molar basis (reduction of Rma): local intra arterial injection; for vascular effect after pretreatment with adrenoceptor blockers and atropine: phentolamine, propranolol and atropine pretreatment
Experimental: Experiments were performed on twelve adult mixed breed dogs of both sexes weighing between 4 and 9 kg. These experiments were approved by the institutional animal care and ethics committee. The dogs were anaesthetised with pentobarbitone sodium (35 mg kg^-1 i.v.). The trachea was cannulated low in the neck and the animals were artifically ventilated. A catheter connected to a […] blood pressure transducer was placed in a femoral artery for systemic blood pressure monitoring. Another catheter was inserted in a femoral vein for administration of compounds and further doses of anaesthetic as required (0.5-1 ml of a 1-in-5 dilution of pentobarbitone). The left cervical vagus nerve was dissected high in the neck, the vagal sheath was removed and then the sympathetic nerve was separated from the vagal trunk. […] The left zygomatic arch was removed and the […] the sphenopalatine ganglion were exposed by a procedure similar to the one described by […] & Wilson (1973). Bipolar platinum electrodes connected to a Grass S 88 stimulator (Grass Instruments, Quincy, USA) were used for stimulation of the proximal portion of the cervical sympathetic nerve and the cut peripheral end of the parasympathetic nerve. The identification of cervical sympathetic nerve was confirmed by observing dilation of the pupil with its electrical stimulation. The left external carotid artery was […] up to the internal maxillary artery. The main arterial branches located beyond to the superficial temporal artery were ligated as described previously by Lacroix et al. (1988), a procedure which leaves the internal maxillary artery flow supplying only the nasal mucosa. The superficial temporal artery was cannulated for selective injection of agents into the main nasal arterial blood supply. The nasal arterial blood flow was recorded with a transonic flow probe (3SB454) placed around the internal maxillary artery and connected to a T206 ultrasonic blood flowmeter (Transonic System Inc., N.Y., U.S.A.). All parameters were continuously recorded on a Grass polygraph model 7C in all experiments. The animals were allowed a one hour intervention-free period following completion of surgery. Group 1 (n+8): […] The administration of saline alone had no measurable effect. An interval of 5 min was allowed between successive injections. Fifteen minutes after the completion of the ACh, VIP, PH1 and NA injections, parasympathetic nerve stimulations (5 V, 5 ms) were performed at continuous frequencies of 10, 20 and 30 Hz, each for 10 sec. Each stimulation was performed 3 min after the blood flow in the internal maxillary artery returned to base line from the preceding stimulation. Sympathetic nerve stimulation (15 V, 5 ms) was then performed continuously at 10 Hz for 3 min. Parasympathetic nerve stimulations were repeated five minutes, thirty minutes and then one hour after sympathetic nerve stimulation. This entire protocol was repeated after pretreatment with the α-adrenoceptor antagonist phentolamine (0.5 mg kg^-1 h^-1), the β-adrenoceptor antagonist propranolol (1 mg kg^-1) and the parasympathetic muscarinic receptor blocker atropine (0.5 mg kg^-1), all delivered by local intra arterial (i.a.) injection. […] Analysis of results: changes of the nasal arterial blood flow were expressed in terms of vascular resistance in the maxillary artery (Rma), obtained by dividing the driving mean arterial blood pressure in the femoral artery by the peak value of the blood flow volume rate in the maxillary artery. Before each experiment a zero flow in the maxillary artery was obtained by clamping the artery upstream to the transonic probe for 30 sec. The duration of the responses were given in second sand calculated from the end of the electrical stimulation until return to former basal values. All data are presented as mean ± standard error of the […]. Statistical differences were evaluated using one way ANOVA test.

endogenous ATP receptor = assay: Calcium response to ATP in Y1 receptor-transfected CHO cells; assay type: cell-based, Chinese Hamster; settings: 1 μM ATP
Experimental: Cells were suspended in loading media (Modified RPMI, 10 mM Hepes, 1% newborn fetal calf serum) and incubated in a spinner flask at 37° C., for 2.5 hours at 1×10^6 cells/ml. Cells were then treated with […] Fura-2 AM for 30 minutes at 37° C., washed twice with loading media and resuspended at 5×10^6 cells/ml. Immediately before use in fluorescence spectroscopy, cells were recovered by centrifugation at 1000 rpm and resuspended at 1×10^6 cells/ml in a modified Krebs buffer (135 mM NaCl, 4.7 mM KCl; 1.2 /nM MgSO4, 1.2 mM KH2 PO4, 5 mM NaHCO3, 1 mM CaCl2, 2.8 mM glucose, and 10 mM Hepes, pH 7.4) containing 1 mM sulphinpyrazone. Fluorescence recordings were made on an Hitachi fluorescence spectrometer (F4010) at 340 nm (excitation) and 505 nm (emission) over 10 minutes with slit widths of 5 nm and a response time of 2 seconds. Intracellular calcium levels were quantitated using equations described (Grynkiewicz et al., 1985).

[2] = system: internal maxillary artery; assay: Arterial blood pressure and nasal arterial blood flow in anaesthetised dogs after i.v. peptide; assay type: in vivo; settings: dog, 8 nmol kg^-1 i.v.
Experimental: Experiments were performed on twelve adult mixed breed dogs of both sexes weighing between 4 and 9 kg. These experiments were approved by the institutional animal care and ethics committee. The dogs were anaesthetised with pentobarbitone sodium (35 mg kg^-1 i.v.). The trachea was cannulated low in the neck and the animals were artifically ventilated. A catheter connected to a Statham P23AC blood pressure transducer was placed in a femoral artery for systemic blood pressure monitoring. Another catheter was inserted in a femoral vein for administration of compounds and further doses of anaesthetic as required (0.5-1 ml of a 1-in-5 dilution of pentobarbitone). The left cervical vagus nerve was dissected high in the neck, the vagal sheath was removed and then the sympathetic nerve was separated from the vagal trunk. […] Bipolar platinum electrodes connected to a Grass S 88 stimulator (Grass Instruments, Quincy, USA) were used for stimulation of the proximal portion of the cervical sympathetic nerve and the cut peripheral end of the parasympathetic nerve. The identification of cervical sympathetic nerve was confirmed by observing dilation of the pupil with its electrical stimulation. The left external carotid artery was disserted up to the internal maxillary artery. […] The superficial temporal artery was cannulated for selective injection of agents into the main nasal arterial blood supply. The nasal arterial blood flow was recorded with a transonic flow probe (3SB454) placed around the internal maxillary artery and connected to a T206 ultrasonic blood flowmeter (Transonic System Inc., N.Y., U.S.A.). All parameters were continuously recorded on a Grass polygraph model 7C in all experiments. The animals were allowed a one hour intervention-free period following completion of surgery.
Group 1 (n+8): Solutions of ACh (5.5×10^-11 to 5.5×10^-8 mol). VIP (3×10^-11 to 3×10^-9 mol), PH1 (3.3×10^-11 to 1.6×10^-8 mol) and NA (6×10^-11 mol to 6×10^-8 mol) in 1 ml of saline, were infused into the superficial temporal artery over a period of 15 sec. […]

[3] = target: T1, prejunctional (neuropeptide Y Y2) receptor (Rattus norvegicus, UniProt Q9ERC0); assay: Inhibition of cardiac vagal action in anaesthetised rats (prejunctional activity); assay type: in vivo; settings: for EC50 / inhibition of cardiac vagal action (prejunctional effect), in words: anaesthetised rats, i.v.; for EC50: log of the dose which evokes 50% of the maximum response, mean ± SEM, five rats
T1 construct: from tissue; host or cells: whole anaesthetised Wistar rat (cardiac vagal nerve endings)
T1 sequence (Q9ERC0 1-381): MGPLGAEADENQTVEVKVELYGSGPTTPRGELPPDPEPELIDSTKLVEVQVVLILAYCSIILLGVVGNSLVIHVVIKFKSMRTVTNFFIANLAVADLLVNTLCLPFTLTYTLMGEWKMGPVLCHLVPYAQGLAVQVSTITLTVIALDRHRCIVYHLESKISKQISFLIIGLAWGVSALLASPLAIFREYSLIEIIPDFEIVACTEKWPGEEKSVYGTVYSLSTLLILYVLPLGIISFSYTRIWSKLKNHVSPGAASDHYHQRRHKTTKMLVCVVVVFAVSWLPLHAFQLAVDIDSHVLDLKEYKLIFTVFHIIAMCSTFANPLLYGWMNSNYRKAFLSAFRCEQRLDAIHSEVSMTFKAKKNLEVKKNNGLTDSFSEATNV
Experimental: Experiments were carried out on adult rats (Wistar) of both sexes (250-350 g), anaesthetised with sodium pentobarbitone (Nembutal, Boehringer-Ingleheim; 60 mg/kg, i.p.). […] The femoral vein was cannulated for administration of peptides and further doses of anaesthetic. The left femoral artery was cannulated to record arterial pressure. Both vagus nerves were cut. […] The electrocardiogram was measured using needle electrodes and monitored on one channel of an osciloscope. Pulse interval (the period between successive beats of the heart) was recorded beat-by-beat by triggering from ECG. Pulse interval and arterial pressure were recorded on the pen recorder.
Dose-response curves were constructed from group data for all rats. Because of the long time-course of action of the peptides tested, not all peptides were given to each rat.

[4] = target: T2, neuropeptide Y Y2 receptor (Homo sapiens, UniProt P49146); assay: Competition with radiolabelled peptide YY for binding to SMS-KAN cells
T2 construct: endogenous in cells; host or cells: SMS-KAN human neuroblastoma cells (whole cells; gift of Dr Thue Schwartz)
T2 sequence (P49146 1-381): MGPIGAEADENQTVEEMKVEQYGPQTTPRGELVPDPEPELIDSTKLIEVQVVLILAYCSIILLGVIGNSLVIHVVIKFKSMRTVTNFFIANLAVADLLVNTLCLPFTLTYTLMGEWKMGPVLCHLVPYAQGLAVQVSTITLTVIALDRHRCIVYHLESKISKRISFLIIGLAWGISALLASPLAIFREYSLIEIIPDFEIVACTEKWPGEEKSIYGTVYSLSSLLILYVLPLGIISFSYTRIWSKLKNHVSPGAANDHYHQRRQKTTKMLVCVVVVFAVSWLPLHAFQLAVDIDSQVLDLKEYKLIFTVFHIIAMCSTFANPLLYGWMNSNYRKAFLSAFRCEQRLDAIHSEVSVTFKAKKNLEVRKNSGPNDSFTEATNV
Source text: (§1) All media and materials for tissue culture were obtained from Cytosystems (Castle Hill, NSW, Australia). Cells were harvested by treatment with 0.2% EDTA in phosphate buffered saline and immediately used in the binding assay described.

[5] = target: T1, prejunctional (neuropeptide Y Y2) receptor; settings: Potter et al., 1989; cited from earlier work
[6] = target: T3, postjunctional (neuropeptide Y Y1) receptor (Rattus norvegicus, UniProt P21555); assay: Pressor action (arterial blood pressure) in anaesthetised rats (postjunctional activity); assay type: in vivo; settings: i.v.
T3 construct: from tissue; host or cells: whole anaesthetised Wistar rat (vasculature)
T3 sequence (P21555 1-382): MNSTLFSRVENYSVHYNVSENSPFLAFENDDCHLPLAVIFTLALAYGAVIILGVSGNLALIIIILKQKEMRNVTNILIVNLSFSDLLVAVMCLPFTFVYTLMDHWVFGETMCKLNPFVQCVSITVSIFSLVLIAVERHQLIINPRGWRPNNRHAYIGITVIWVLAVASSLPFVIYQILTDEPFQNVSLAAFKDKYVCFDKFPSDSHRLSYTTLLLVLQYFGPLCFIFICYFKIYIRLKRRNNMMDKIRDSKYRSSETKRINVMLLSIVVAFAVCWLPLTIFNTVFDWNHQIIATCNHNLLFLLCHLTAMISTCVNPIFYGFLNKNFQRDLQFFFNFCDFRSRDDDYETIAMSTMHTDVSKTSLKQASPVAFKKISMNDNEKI
Experimental: Experiments were carried out on adult rats (Wistar) of both sexes (250-350 g), anaesthetised with sodium pentobarbitone (Nembutal, Boehringer-Ingleheim; 60 mg/kg, i.p.). The trachea was cannulated and the animal artifically ventilated. The femoral vein was cannulated for administration of peptides and further doses of anaesthetic. The left femoral artery was cannulated to record arterial pressure. Both vagus nerves were cut. […] The frequency was chosen to increase pulse interval by approximately 100 ms, a submaximal effect on this variable. The electrocardiogram was measured using needle electrodes and monitored on one channel of an osciloscope. Pulse interval (the period between successive beats of the heart) was recorded beat-by-beat by triggering from ECG. Pulse interval and arterial pressure were recorded on the pen recorder. […]
As an indication of prejunctional activity two parameters were measured; the maximum percent inhibition of the increase in pulse interval evoked by stimulation of the vagus nerve following injection of peptide (Δ pulse interval, % inhibition) and the time to half recovery of this effect (T50). For pressor action, an indicator of postjunctional activity, two parameters were also measured; the peak pressor response following injection of peptide (Δ blood pressure) and the duration of the increase in blood pressure (Duration). […]

[7] = target: T4, neuropeptide Y Y1 receptor (Homo sapiens, UniProt P25929); assay: Competition with radiolabelled peptide YY for binding to SK-N-MC cells
T4 construct: host or cells: SK-N-MC human neuroblastoma cells (whole cells)
T4 sequence (P25929 1-384): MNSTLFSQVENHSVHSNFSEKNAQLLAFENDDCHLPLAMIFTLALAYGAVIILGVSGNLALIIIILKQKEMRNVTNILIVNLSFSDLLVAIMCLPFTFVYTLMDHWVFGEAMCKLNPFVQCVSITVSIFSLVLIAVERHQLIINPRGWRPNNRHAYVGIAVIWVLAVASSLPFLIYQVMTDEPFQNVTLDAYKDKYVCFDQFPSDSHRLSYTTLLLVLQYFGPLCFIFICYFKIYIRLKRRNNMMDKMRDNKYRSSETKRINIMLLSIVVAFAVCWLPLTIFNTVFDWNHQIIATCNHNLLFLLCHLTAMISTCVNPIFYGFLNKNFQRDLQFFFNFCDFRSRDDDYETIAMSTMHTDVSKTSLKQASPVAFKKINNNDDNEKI
Source text: as §1

C[N+](C)(C)CC[N+]1(C)Cc2c(Cl)c(Cl)c(Cl)c(Cl)c2C1 [chlorisondamine]
vasodilatation evoked by vidian nerve stimulation after ganglion blocker (dog nasal mucosa; 2 mg kg^-1, i.v.): inhibition of vasodilatation

NC[C@H](O)c1ccc(O)c(O)c1 [NA]
effect on Rma, in words [1]: dose-dependant increases in Rma
vascular effect after pretreatment with adrenoceptor blockers and atropine [1]: virtually abolished

peptide histidine isoleucine [PHI]
effect on Rma, in words [1]: dose-dependant reductions of the Rma
rank order potency on a molar basis (reduction of Rma) [1]: ACh>VIP>PHI
vascular effect after pretreatment with adrenoceptor blockers and atropine [1]: remained intact

Nc1ncnc2c1ncn2[C@@H]1O[C@H](COP(=O)(O)OP(=O)(O)OP(=O)(O)O)[C@@H](O)[C@H]1O [ATP]
calcium response to ATP after addition of N-acetyl [Leu28, Leu31] neuropeptide Y-(24-36) (endogenous ATP receptor): 33.8 nM
calcium response to ATP before addition of N-acetyl [Leu28, Leu31] neuropeptide Y-(24-36) (endogenous ATP receptor): 46.3 nM

vasoactive intestinal polypeptide [VIP]
effect on Rma, in words [1]: dose-dependant reductions of the Rma
rank order potency on a molar basis (reduction of Rma) [1]: ACh>VIP>PHI
vascular effect after pretreatment with adrenoceptor blockers and atropine [1]: remained intact

[Leu^31, Pro^34 ] neuropeptide Y [[Leu^31, Pro^34] NPY]
duration of the blood pressure increase [2]: more than 7 min
reduction of blood flow in the internal maxillary artery (nasal mucosa blood flow) [2]: ~20%
increase in arterial blood pressure ([2]; after phentolamine, propranolol and atropine): 23±2.8 mmHg
parasympathetic vasodilatation after administration, in words (dog nasal mucosa; Y1 agonist 8 nmol kg^-1, Y2 agonist 20 nmol kg^-1): no influence on the parasympathetic nerve-evoked vasodilatation; also recorded: no influence on the subsequent parasympathetic vasodilatation
parasympathetic vasodilatation after administration, in words (dog nasal mucosa; Y1 agonist 8 nmol kg^-1, Y2 agonist 20 nmol kg^-1, Pro^31 ] NPY): not modified

Ac-LRHYLNLLTRQRY-NH2 [N-acetyl [Leu^28, Leu^31] neuropeptide Y-(24-36)]
EC50 ([3]; read-out: EC50 for T50 (time to half recovery of vagal inhibition) (converted)): 2.51 nM
EC50 ([3]; read-out: EC50 for Δ pulse interval (converted)): 3.16 nM
IC50 [4]: 3.9 ± 0.4 nM

neuropeptide Y-(13-32)
prejunctional activity in vivo, earlier study [5]: inactive in vivo

CC(=O)OCC[N+](C)(C)C.[Cl-] [ACh, acetylcholine chloride]
effect on Rma, in words [1]: dose-dependant reductions of the Rma
rank order potency on a molar basis (reduction of Rma) [1]: ACh>VIP>PHI
vascular effect after pretreatment with adrenoceptor blockers and atropine [1]: virtually abolished

LRHYLNLLTRQRY-NH2 [[Leu^28, Leu^31] neuropeptide Y-(24-36)]
duration of transient response (T50) ([3]; Table 1 footnote, no EC50 calculated): < 2 min
inhibition of cardiac vagal action (prejunctional effect), in words [3]: significant inhibitory or prejunctional actions but these effects are transient
inhibition of cardiac vagal action (prejunctional effect), in words ([3]; listed as [Leu^27, Leu^31 ] neuropeptide Y-(24-36)): significant inhibitory effects on cardiac vagal action
pressor effect (Δ blood pressure), in words [6]: did not significantly increase blood pressure at any dose tested
IC50 [4]: 12.7 ± 1.2 nM
binding to Y1 receptor on SK-N-MC cells, in words [7]: neither N-acetyl [Leu^28, Leu^31 ] neuropeptide Y-(24-36) or [Leu^28, Leu^31 ] neuropeptide Y-(24-36) shoed significant binding
